Reference: ChEMBL document CHEMBL1201861, “Genomics of Drug Sensitity in Cancer screening data, Wellcome Trust Sanger Institute”

Experiments:
Assay in all cases: cells
Type in all cases: functional, cell-based, Homo sapiens
[1] = test system: SW1573; settings: Homo sapiens, SW1573;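 note: growth inhibition of SW1573 cells, read out with a cell viability assay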
Description: SANGER: Inhibition of human SW1573 cell growth in a cell viability assay.

[2] = test system: TYK-nu; settings: Homo sapiens, TYK-nu;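 note: growth inhibition of human TYK-nu cells, read out by a cell viability assay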
Description: SANGER: Inhibition of human TYK-nu cell growth in a cell viability assay.

[3] = test system: FTC-133; settings: Homo sapiens, FTC-133
[4] = test system: S-117; settings: Homo sapiens, S-117
Description: SANGER: Inhibition of human S-117 cell growth in a cell viability assay.

[5] = test system: NCI-H2122; settings: Homo sapiens, NCI-H2122;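 note: growth inhibition of the cells, read out with a cell viability assay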
Description: SANGER: Inhibition of human NCI-H2122 cell growth in a cell viability assay.

[6] = test system: HAL-01; settings: Homo sapiens, HAL-01;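 note: growth inhibition of human HAL-01 cells, read out with a cell viability assay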
Description: SANGER: Inhibition of human HAL-01 cell growth in a cell viability assay.

[7] = test system: Hs-578T; settings: Homo sapiens, Hs-578T
Description: SANGER: Inhibition of human Hs-578-T cell growth in a cell viability assay.

[8] = test system: 769-P; settings: Homo sapiens, 769-P
Description: SANGER: Inhibition of human 769-P cell growth in a cell viability assay.

[9] = test system: Calu-3; settings: Homo sapiens, Calu-3;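 note: growth inhibition of human Calu-3 cells, determined with a cell viability assay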
Description: SANGER: Inhibition of human Calu-3 cell growth in a cell viability assay.

[10] = test system: SCC-9; settings: Homo sapiens, SCC-9;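 note: Read-out is a cell viability assay, with values giving inhibition of cell growth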
Description: SANGER: Inhibition of human SCC-9 cell growth in a cell viability assay.

[11] = test system: EFM-19; settings: Homo sapiens, EFM-19;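 note: growth inhibition of human EFM-19 cells, measured in a cell viability assay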
Description: SANGER: Inhibition of human EFM-19 cell growth in a cell viability assay.

[12] = test system: LS-411N; settings: Homo sapiens, LS-411N
[13] = test system: C32; settings: Homo sapiens, C32;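 note: cell viability assay, with IC50 reflecting inhibition of C32 cell growth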
Description: SANGER: Inhibition of human C32 cell growth in a cell viability assay.

[14] = test system: HD-MY-Z; settings: Homo sapiens, HD-MY-Z;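 note: growth inhibition of HD-MY-Z cells, read out with a cell viability assay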
Description: SANGER: Inhibition of human HD-MY-Z cell growth in a cell viability assay.

[15] = test system: AN3-CA; settings: Homo sapiens, AN3-CA;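 note: growth inhibition of human AN3-CA cells measured by a cell viability assay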
Description: SANGER: Inhibition of human AN3-CA cell growth in a cell viability assay.

[16] = test system: Daoy; settings: Homo sapiens, Daoy;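 note: daoy cell growth inhibition, read out as cell viability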
Description: SANGER: Inhibition of human Daoy cell growth in a cell viability assay.

[17] = test system: KYSE-140; settings: Homo sapiens, KYSE-140;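 note: cell viability assay measuring growth inhibition in human KYSE-140 cells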
Description: SANGER: Inhibition of human KYSE-140 cell growth in a cell viability assay.

[18] = test system: CFPAC-1; settings: Homo sapiens, CFPAC-1;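 note: cell viability readout used to gauge suppression of CFPAC-1 cell proliferation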
Description: SANGER: Inhibition of human CFPAC-1 cell growth in a cell viability assay.

[19] = test system: EW-16; settings: Homo sapiens, EW-16;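 note: growth inhibition of human EW-16 cells, read out as cell viability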
Description: SANGER: Inhibition of human EW-16 cell growth in a cell viability assay.

[20] = test system: C2BBe1; settings: Homo sapiens, C2BBe1;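 note: growth inhibition of C2BBe1 cells, read out through a viability assay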
Description: SANGER: Inhibition of human C2BBe1 cell growth in a cell viability assay.

[21] = test system: DU-4475; settings: Homo sapiens, DU-4475
Description: SANGER: Inhibition of human DU-4475 cell growth in a cell viability assay.

[22] = test system: BEN; settings: Homo sapiens, BEN;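 note: growth inhibition of the BEN cell line, read out with a cell viability assay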
Description: SANGER: Inhibition of human BEN cell growth in a cell viability assay.

[23] = test system: SK-PN-DW; settings: Homo sapiens, SK-PN-DW;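 note: growth inhibition measured with a viability assay on these cells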
Description: SANGER: Inhibition of human SK-PN-DW cell growth in a cell viability assay.

[24] = test system: TE-8; settings: Homo sapiens, TE-8;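 note: growth inhibition of TE-8 cells, measured with a cell viability readout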
Description: SANGER: Inhibition of human TE-8 cell growth in a cell viability assay.

[25] = test system: UO-31; settings: Homo sapiens, UO-31;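 note: cell viability assay measuring inhibition of cell growth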
Description: SANGER: Inhibition of human U031 cell growth in a cell viability assay.

[26] = test system: COLO-684; settings: Homo sapiens, COLO-684
Description: SANGER: Inhibition of human COLO-684 cell growth in a cell viability assay.

[27] = test system: KGN; settings: Homo sapiens, KGN;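 note: growth inhibition of KGN cells, read out with a cell viability assay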
Description: SANGER: Inhibition of human KGN cell growth in a cell viability assay.

[28] = test system: NCI-H446; settings: Homo sapiens, NCI-H446;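 note: growth inhibition of NCI-H446 cells determined by a cell viability assay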
Description: SANGER: Inhibition of human NCI-H446 cell growth in a cell viability assay.

[29] = test system: no-10; settings: Homo sapiens;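 note: growth inhibition of no-10 cells, read out with a cell viability assay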
Description: SANGER: Inhibition of human no-10 cell growth in a cell viability assay.

[30] = test system: MDA-MB-231; settings: Homo sapiens, MDA-MB-231
Description: SANGER: Inhibition of human MDA-MB-231 cell growth in a cell viability assay.

[31] = test system: C-33-A; settings: Homo sapiens, C-33-A;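 note: cell viability assay measuring growth inhibition of C-33-A cells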
Description: SANGER: Inhibition of human C-33-A cell growth in a cell viability assay.

[32] = test system: PANC-08-13; settings: Homo sapiens, PANC-08-13;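 note: cell growth inhibition, measured with a cell viability assay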
Description: SANGER: Inhibition of human PANC-08-13 cell growth in a cell viability assay.

[33] = test system: JAR; settings: Homo sapiens, JAR;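 note: growth inhibition of human JAR cells determined with a cell viability assay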
Description: SANGER: Inhibition of human JAR cell growth in a cell viability assay.

[34] = test system: GCIY; settings: Homo sapiens, GCIY;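 note: growth inhibition of the human GCIY cell line, read out by a cell viability assay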
Description: SANGER: Inhibition of human GCIY cell growth in a cell viability assay.

[35] = test system: RCC10RGB; settings: Homo sapiens, RCC10RGB;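 note: growth inhibition of human RCC10RGB cells, read out by a cell viability assay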
Description: SANGER: Inhibition of human RCC10RGB cell growth in a cell viability assay.

[36] = test system: Ca-Ski; settings: Homo sapiens, Ca-Ski;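 note: cell viability assay measuring inhibition of Ca-Ski cell growth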
Description: SANGER: Inhibition of human Ca-Ski cell growth in a cell viability assay.

[37] = test system: NCI-H1563; settings: Homo sapiens, NCI-H1563;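 note: growth inhibition of human NCI-H1563 cells, read out with a cell viability assay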
Description: SANGER: Inhibition of human NCI-H1563 cell growth in a cell viability assay.

[38] = test system: ES6; settings: Homo sapiens, ES6;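 note: growth inhibition of human ES6 cells, read out with a cell viability assay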
Description: SANGER: Inhibition of human ES6 cell growth in a cell viability assay.

[39] = test system: OE33; settings: Homo sapiens, OE33;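 note: growth inhibition of human OE33 cells, measured by a cell viability assay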
Description: SANGER: Inhibition of human OE33 cell growth in a cell viability assay.

[40] = test system: NCI-H510A; settings: Homo sapiens, NCI-H510A;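 note: growth inhibition of NCI-H510A cells, read out with a cell viability assay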
Description: SANGER: Inhibition of human NCI-H510A cell growth in a cell viability assay.

With `COc1cc2c(Nc3ccc(NC(=O)c4ccccc4)cc3)ncnc2cc1OCCCN1CCOCC1` the IC50 [1] was greater than 4 µM, the IC50 [2] was greater than 4 µM and the IC50 [3] was greater than 4 µM. It also gave an IC50 [4] greater than 4 µM, an IC50 [5] greater than 4 µM and an IC50 [6] greater than 4 µM. It also gave an IC50 [7] greater than 4 µM, an IC50 [8] greater than 4 µM and an IC50 [9] greater than 4 µM. The IC50 [10] was greater than 4 µM, the IC50 [11] was greater than 4 µM and the IC50 [12] was greater than 4 µM. For the same compound, the IC50 [13] was 3.83 µM, the IC50 [14] was greater than 4 µM and the IC50 [15] was greater than 4 µM. It also gave an IC50 [16] greater than 4 µM, an IC50 [17] greater than 4 µM and an IC50 [18] greater than 4 µM. For the same compound, the IC50 [19] was 3.23 µM, the IC50 [20] was greater than 4 µM and the IC50 [21] was greater than 4 µM. For the same compound, the IC50 [22] was greater than 4 µM, the IC50 [23] was greater than 4 µM and the IC50 [24] was 2.49 µM. For the same compound, the IC50 [25] was greater than 4 µM, the IC50 [26] was greater than 4 µM and the IC50 [27] was greater than 4 µM. The IC50 [28] was greater than 4 µM, the IC50 [29] was greater than 4 µM and the IC50 [30] was greater than 4 µM. It also gave an IC50 [31] greater than 4 µM, an IC50 [32] greater than 4 µM and an IC50 [33] greater than 4 µM. It also gave an IC50 [34] greater than 4 µM, an IC50 [35] greater than 4 µM and an IC50 [36] greater than 4 µM. For the same compound, the IC50 [37] was greater than 4 µM, the IC50 [38] was greater than 4 µM and the IC50 [39] was greater than 4 µM.
For `CN(C)C(=N)NC(=N)N` [METFORMIN], the IC50 [1] was greater than 20000 µM, the IC50 [2] was 16500 µM and the IC50 [3] was greater than 20000 µM. It also gave an IC50 [5] greater than 20000 µM, an IC50 [6] greater than 20000 µM and an IC50 [7] greater than 20000 µM. It also gave an IC50 [8] of 6920 µM, an IC50 [9] greater than 20000 µM and an IC50 [10] of 10200 µM. It also gave an IC50 [12] of 10400 µM, an IC50 [13] greater than 20000 µM and an IC50 [14] greater than 20000 µM. The IC50 [15] was greater than 20000 µM, the IC50 [16] was greater than 20000 µM and the IC50 [17] was greater than 20000 µM. For the same compound, the IC50 [18] was greater than 20000 µM, the IC50 [19] was 6780 µM and the IC50 [20] was 11800 µM. For the same compound, the IC50 [21] was 3840 µM, the IC50 [22] was 15400 µM and the IC50 [24] was greater than 20000 µM. For the same compound, the IC50 [25] was greater than 20000 µM, the IC50 [40] was 1310 µM and the IC50 [26] was greater than 20000 µM. The IC50 [27] was greater than 20000 µM, the IC50 [31] was 9400 µM and the IC50 [32] was greater than 20000 µM. For the same compound, the IC50 [33] was 9030 µM, the IC50 [34] was greater than 20000 µM and the IC50 [36] was greater than 20000 µM. The IC50 [37] was 8610 µM and the IC50 [38] was greater than 20000 µM.
Compound `CC1(C)CNc2cc(NC(=O)c3cccnc3NCc3ccncc3)ccc21` [MOTESANIB] has an IC50 [1] greater than 2 µM, an IC50 [2] greater than 2 µM and an IC50 [3] greater than 2 µM. The IC50 [4] was greater than 2 µM, the IC50 [5] was greater than 2 µM and the IC50 [6] was greater than 2 µM. For the same compound, the IC50 [7] was greater than 2 µM, the IC50 [8] was greater than 2 µM and the IC50 [9] was greater than 2 µM. For the same compound, the IC50 [10] was greater than 2 µM, the IC50 [11] was greater than 2 µM and the IC50 [12] was greater than 2 µM. It also gave an IC50 [13] greater than 2 µM, an IC50 [14] greater than 2 µM and an IC50 [15] greater than 2 µM. For the same compound, the IC50 [16] was greater than 2 µM, the IC50 [17] was greater than 2 µM and the IC50 [18] was greater than 2 µM. It also gave an IC50 [19] greater than 2 µM, an IC50 [20] greater than 2 µM and an IC50 [21] greater than 2 µM. For the same compound, the IC50 [22] was greater than 2 µM, the IC50 [23] was greater than 2 µM and the IC50 [24] was greater than 2 µM. The IC50 [25] was greater than 2 µM, the IC50 [26] was greater than 2 µM and the IC50 [27] was greater than 2 µM. It also gave an IC50 [28] greater than 2 µM, an IC50 [29] greater than 2 µM and an IC50 [30] greater than 2 µM. It also gave an IC50 [31] greater than 2 µM, an IC50 [32] greater than 2 µM and an IC50 [33] greater than 2 µM. For the same compound, the IC50 [34] was greater than 2 µM, the IC50 [35] was greater than 2 µM and the IC50 [36] was greater than 2 µM. It also gave an IC50 [37] greater than 2 µM, an IC50 [38] greater than 2 µM and an IC50 [39] greater than 2 µM.
